Assay results from patent US10568930B2, “Agents and methods of treatment” (Hexima Limited, priority 2014, dated 2020).
Where two headings read alike, the source gives them in different places.

Columns and labels:
Candida albicans [1] = experiment: Antifungal growth assay, defensin plus proteinase inhibitor; assay type: cell-based; design: key to Synergy: Io-Ee in % inhibition points; >60 high synergy, <15 none; conditions: for Expected inhibition: Ee, Limpel formula; for Synergy: Io-Ee
Description: (§1) Spores are isolated from sporulating fungus spp. growing on yeast extract peptone dextrose agar (Candida albicans, Cryptococcus gattii—1.5×10^6) or ½ strength Sabouraud dextrose agar (Trichophyton interdigitale, Microsporum fulvum—5×10^4). Spores are removed from the plates by the addition of ½ strength potato dextrose broth (PDB). Spore concentrations are measured using a haemocytometer.
(§2) Antifungal assays were conducted in 96 well microtitre plates. Wells were loaded with 10 μL of filter sterilized (0.22 μm syringe filter, Millipore) defensin (10× stock for each final concentration) or water, 10 μL, of filter sterilized (0.22 μm syringe filter, Millipore) proteinase inhibitor or chemical fungicide (10× stock for each final concentration) or water and 80 μL of 5×10^3 spores/mL in ½ strength PDB. The plates were incubated at 24° C. Fungal growth was assayed by measuring optical density at 595 nm (A595) using a microtitre plate reader (SpectraMax Pro M2; Molecular Devices. Growth was allowed to proceed until the optical density (OD) of the fungus in the absence of any test defensin reached an OD of 0.2. Each test was performed in duplicate.
(§3) Synergy is classified as the difference between the observed % fungal growth inhibition caused by the combination of a defensin and a proteinase inhibitor (or a defensin and a chemical fungicide) (Io value) and the expected % fungal growth inhibition of the defensin and the proteinase inhibitor (or the defensin and the chemical fungicide) based on the sum of the % fungal growth inhibition of the defensin and the proteinase inhibitor (or the defensin and the chemical fungicide) on their own (Ee value calculated according to the Limpel formula used by Richer et al. (1987) supra). The difference, Io-Ee, is the synergy value. A synergy value up to 15 means no significant synergy; 15-30 is a low level of synergy; 30-60 is a medium level of synergy; and >60 is a high level of synergy. Synergy calculations are presented in Tables 2 through 7 wherein, as indicated above, Ee is the expected effect from the additive response according to Limpel's formula expressed as percent inhibition and To is the percent inhibition observed. Synergy occurs when To values are higher than Ee values.

Cryptococcus gattii = experiment: as above; assay type: cell-based; conditions: for Expected inhibition: Ee, Limpel formula; for Synergy: Io-Ee
Description: as §1, §2, §3

[2] = system: Trichophyton interdigitale; experiment: as above; assay type: cell-based; conditions: for Expected inhibition: Ee, Limpel formula; for Synergy: Io-Ee
Description: as §1, §2, §3

Candida albicans [3] = experiment: Antifungal growth assay, defensin plus chemical fungicide; assay type: cell-based; design: key to Synergy: Io-Ee in % inhibition points; <15 none, 15-30 low, 30-60 medium, >60 high; conditions: for Expected inhibition: Ee, Limpel formula; for Synergy: Io-Ee
Description: Chemical fungicides were sourced commercially and were prepared as 10× stock solutions in H2O (caspofungin and fenpropimorph) or as a 100× stock in methanol (terbinafine).
as §1, §2, §3

Microsporum fulvum = experiment: Antifungal growth assay, defensin plus proteinase inhibitor; assay type: cell-based; conditions: for Expected inhibition: Ee, Limpel formula; for Synergy: Io-Ee
Description: as §1, §2, §3

plasma membrane = conditions: cited from earlier work
[4] = defensin 2 μM + BPTI (0.625 μM)
[5] = defensin 2 μM + HyCPI6 (2.5 μM)
[6] = defensin 2 μM + SlCys9N (2.5 μM)
[7] = defensin 0.5 μM + BPTI (0.625 μM)
[8] = defensin 0.5 μM + HvCPI6 (2.5 μM)
[9] = defensin 0.5 μM + SlCys9N (2.5 μM)
[10] = defensin 1.5 μM + Caspofungin (2 ng/ml)
[11] = defensin 1.5 μM + Fenpropimorph (2 ug/ml)
[12] = defensin 1.5 μM + Terbinafine (4 ng/ml)
[13] = defensin 2 μM + HvCPI6 (2.5 μM)
[14] = defensin 0.5 μM + HyCPI6 (0.625 μM)
[15] = defensin 0.5 μM + SlCys9N (5 μM)
[16] = defensin 1 μM + BPTI (0.625 μM)
[17] = defensin 1 μM + HvCPI6 (2.5 μM)
[18] = defensin 1 μM + SlCys9N (2.5 μM)
[19] = permeabilizing defensin 1 μM + Caspofungin (2 ng/ml)

HXP4: artificial (synthetic) defensin variant, SEQ ID NO:8; permeabilizing (RECKTESHRFKGPCITKPPCRKACISEKFTDGHCSKILRRCLCTKPC; HXP4 protein)
Observed inhibition (Candida albicans [1]; [4]): 100%
Expected inhibition (Candida albicans [1]; [4]): 16.2%
Synergy (Candida albicans [1]; [4]): 83.8
Observed inhibition (Candida albicans [1]; [5]): 93.5%
Expected inhibition (Candida albicans [1]; [5]): 15.9%
Synergy (Candida albicans [1]; [5]): 77.6
Observed inhibition (Candida albicans [1]; [6]): 92.4%
Expected inhibition (Candida albicans [1]; [6]): 33%
Synergy (Candida albicans [1]; [6]): 59.4
Observed inhibition (Cryptococcus gattii; [7]): 97.4%
Expected inhibition (Cryptococcus gattii; [7]): 48.8%
Synergy (Cryptococcus gattii; [7]): 48.6
Observed inhibition (Cryptococcus gattii; [8]): 97.4%
Expected inhibition (Cryptococcus gattii; [8]): 18.6%
Synergy (Cryptococcus gattii; [8]): 78.8
Observed inhibition (Cryptococcus gattii; [9]): 99.3%
Expected inhibition (Cryptococcus gattii; [9]): 0.0%
Synergy (Cryptococcus gattii; [9]): 99.3
Observed inhibition [2, 7]: 69.0%
Expected inhibition [2, 7]: 32.9%
Synergy [2, 7]: 36.1
Observed inhibition [2, 8]: 56.8%
Expected inhibition [2, 8]: 31.1%
Synergy [2, 8]: 25.7
Observed inhibition [2, 9]: 53.0%
Expected inhibition [2, 9]: 9.7%
Synergy [2, 9]: 43.4
Observed inhibition (Candida albicans [3]; [10]): 64.5%
Expected inhibition (Candida albicans [3]; [10]): 14.5%
Synergy (Candida albicans [3]; [10]): 50.0
Observed inhibition (Candida albicans [3]; [11]): 97.6%
Expected inhibition (Candida albicans [3]; [11]): 15%
Synergy (Candida albicans [3]; [11]): 82.6
Observed inhibition (Candida albicans [3]; [12]): 82.7%
Expected inhibition (Candida albicans [3]; [12]): 44.8%
Synergy (Candida albicans [3]; [12]): 37.9

NaD1: Solanaceous Class II plant defensin from flowers of Nicotiana alata (Q8GTMO); permeabilizing defensin (RECKTESNTFPGICITKPPCRKACISEKFTDGHCSKILRRCLCTKPC; UniProt Q8GTM0 26-72, looked up)
Observed inhibition (Candida albicans [1]; [4]): 94.1%
Expected inhibition (Candida albicans [1]; [4]): 29.7%
Synergy (Candida albicans [1]; [4]): 64.4
Observed inhibition (Candida albicans [1]; [5]): 64.7%
Expected inhibition (Candida albicans [1]; [5]): 0.0%
Synergy (Candida albicans [1]; [5]): 64.7
Observed inhibition (Candida albicans [1]; [6]): 94.8%
Expected inhibition (Candida albicans [1]; [6]): 31.9%
Synergy (Candida albicans [1]; [6]): 62.9
Observed inhibition (Cryptococcus gattii; [4]): 95.6%
Expected inhibition (Cryptococcus gattii; [4]): 22.0%
Synergy (Cryptococcus gattii; [4]): 73.7
Observed inhibition (Cryptococcus gattii; [13]): 96.2%
Expected inhibition (Cryptococcus gattii; [13]): 32.1%
Synergy (Cryptococcus gattii; [13]): 64.1
Observed inhibition (Cryptococcus gattii; [6]): 98.8%
Expected inhibition (Cryptococcus gattii; [6]): 0.0%
Synergy (Cryptococcus gattii; [6]): 98.8
Observed inhibition (Microsporum fulvum; [7]): 52.9%
Expected inhibition (Microsporum fulvum; [7]): 34.3%
Synergy (Microsporum fulvum; [7]): 18.6
Observed inhibition (Microsporum fulvum; [14]): 43.8%
Expected inhibition (Microsporum fulvum; [14]): 19.0%
Synergy (Microsporum fulvum; [14]): 24.8
Observed inhibition (Microsporum fulvum; [15]): 79.9%
Expected inhibition (Microsporum fulvum; [15]): 40.7%
Synergy (Microsporum fulvum; [15]): 39.2
Observed inhibition [2, 16]: 89.1%
Expected inhibition [2, 16]: 57.9%
Synergy [2, 16]: 31.2
Observed inhibition [2, 17]: 71.6%
Expected inhibition [2, 17]: 33.5%
Synergy [2, 17]: 38.1
Observed inhibition [2, 18]: 81.1%
Expected inhibition [2, 18]: 28.1%
Synergy [2, 18]: 53.0
Observed inhibition (Candida albicans [3]; [19]): 61.7%
Expected inhibition (Candida albicans [3]; [19]): 1.2%
Synergy (Candida albicans [3]; [19]): 60.5
Membrane permeabilization (plasma membrane; at concentrations corresponding to the IC50): significant membrane permeabilization
Membrane permeabilization (plasma membrane; at low concentrations that do not cause growth inhibition, van der Weerden et al. (2008)): some membrane permeabilization
Time at which permeabilization begins (plasma membrane; van der Weerden et al. (2010)): ≤ 15 min
Time at which permeabilization reaches its maximum (plasma membrane; van der Weerden et al. (2010)): 80 min
